Assays:
[1] = system: Tregs in the large intestine; details: germ-free mice and vancomycin-treated conventional mice; cited from earlier work
Lactobacillus johnsonii = assay: Sugar fermentation/growth in media lacking glucose (pH and optical density)
blautia = assay: as above
C57B1/6 female mice = details: mouse, in vivo
Procedure: The possibility that modification of the microbiome in a given physical location may influence the microbiome at other sites in the body (distal augmentation) was investigated. Seven week old C57B1/6 female mice were acclimatized for 7 days prior to the start of the study by daily handling and shuffling between cages. All mice were housed at three mice per cage in individually vented cages (Thoren, Hazleton, Pa.). At day 0, baseline fresh fecal pellets, and vaginal lavages with 100 μL of sterile double-distilled water were collected and immediately frozen at −80° C. for microbiome analysis. […] Water alone is not expected to influence the microbiome and acted as a negative control. […] The impact of oral vancomycin is therefore expected to be limited to the gastrointestinal tract such that microbiome changes elsewhere in the body (e.g. vagina) would be attributable to distal augmentation. At day 6, fresh fecal pellets and vaginal lavages with 100 μL of sterile double-distilled water were collected and immediately stored at −80° C. for microbiome analysis.
Isolation and sequencing of microbial DNA from the stool and vaginal samples was performed by DNA Genotek (Ottawa, ON, Canada). The V3-V4 region of the 16S ribosomal subunit was amplified with custom PCR primers and sequenced on an Illumina MiSeq to a minimum acceptable read depth of 25,000 sequences per sample. […]

mice with GVHD = assay: Xylose in drinking water in experimental GVHD model after BMT; assay type: in vivo, mouse
[2] = system: healthy, adult volunteers; assay: Normal human volunteer study of D-xylose: CRP, serum cytokines, T-cell markers; assay type: in vivo
From the text: Blood was collected at pre-specified pre- and post-ingestion time points to evaluate C-reactive protein (CRP), serum cytokines (tumor necrosis factor alpha [TNF-α], interleukin [IL]-2, IL-6, interferon gamma [IFN-γ], and IL-10), and T-cell markers CD3, CD4, CD8, CD25, and FOXP3. Plasma was also stored and may be tested for biomarkers and/or metabolic markers for up to 7 years.
Summary statistics (n, mean, standard deviation, median, minimum, and maximum) were presented for serum concentrations of CRP, flow cytometry T-cell markers (CD3, CD4, CD8, CD25, and FOXP3), and cytokines (TNF-α, IL-2, IL-6, IFN-γ, and IL-10) as per their nominal time points.

[3] = system: healthy, adult volunteers; details: human, in vivo
Procedure: D-xylose is a carbon source generally preferred by anaerobic bacteria. […] A parallel, double-blind, 5 cohort escalation food safety study was conducted to examine D-xylose in normal human volunteers. The study was a double-blind, single-center, parallel group study designed to evaluate the tolerability and potential microbiome changes induced by ingestion of D-xylose at 5 different amounts in healthy, adult volunteers enrolled at 1 study center in the United States (US).
Subjects were screened for eligibility within 21 days prior to the first planned ingestion of study sweetener on Day 1 (Baseline). […]
Subjects returned to the study center weekly on Days 8, 15, 22, and 28 for ingestion, tolerability, and compliance evaluations. Safety was evaluated on a continual basis through adverse events (AE) monitoring, clinical laboratory measurements, vital sign monitoring, physical examinations, electrocardiograms (ECGs), telephone follow-up, and electronic subject ingestion diaries. Stool was collected pre-ingestion and at pre-specified time points, and post-ingestion samples were evaluated for changes in the gut microbiome compared with Baseline for all subjects. […]
Safety was evaluated on a continual basis through AE monitoring, clinical laboratory measurements, vital sign monitoring, physical examinations, ECGs, telephone follow-up, and electronic subject ingestion diaries. […]

normal mice = assay: Mouse study: gut microbiome after xylose treatment; assay type: in vivo
gut microbiome = assay: Normal human volunteer study of D-xylose: changes in the gut microbiome (stool 16S); assay type: in vivo; details: for alpha diversity of the gut microbiome: over time on study
tumors = details: oral administration; anti-PD-1 / anti-CTLA-4 antibody therapy; cited from earlier work

Compound: CC(=O)O [acetate]
- numbers of Tregs in the large intestine [1]: restored normal numbers of Tregs in the large intestine

Compound: CCC(=O)O [propionate]
- numbers of Tregs in the large intestine [1]: restored normal numbers of Tregs in the large intestine

Compound: C[C@H](O)[C@H](O)[C@@H](O)[C@@H](O)C=O [rhamnose]
- augmentation / fermentation by lactobacillus (Lactobacillus johnsonii): not lactobacillus
- augmentation / fermentation by blautia (blautia): specifically augments blautia

Compound: CN[C@H](CC(C)C)C(=O)N[C@H]1C(=O)N[C@@H](CC(N)=O)C(=O)N[C@H]2C(=O)N[C@H]3C(=O)N[C@H](C(=O)N[C@H](C(=O)O)c4cc(O)cc(O)c4-c4cc3ccc4O)[C@H](O)c3ccc(c(Cl)c3)Oc3cc2cc(c3O[C@@H]2O[C@H](CO)[C@@H](O)[C@H](O)[C@H]2O[C@H]2C[C@](C)(N)[C@H](O)[C@H](C)O2)Oc2ccc(cc2Cl)[C@H]1O [vancomycin]
- impact on the microbiome of the gut (PCA, family level) (C57B1/6 female mice): strong impact on the microbiome of the gut
- impact on the vaginal microbiome (PCA, family level) (C57B1/6 female mice): showed an overall difference between the PBS and oral vancomycin groups

Compound: O=C[C@H](O)[C@@H](O)[C@H](O)CO [xylose, D-xylose]
- survival of mice with GVHD (mice with GVHD; long-term administration): led to improved survival of mice with GVHD
- Blautia in the intestinal flora (mice with GVHD; xylose in drinking water, day 14 after BMT): lead to an expansion of Blautia in the intestinal flora
- augmentation / fermentation by lactobacillus (Lactobacillus johnsonii): not lactobacillus
- augmentation / fermentation by blautia (blautia): specifically augments blautia
- total T-cells and T-cell subsets over time ([2]; any ingestion amount): No consistent or clinically meaningful changes over time in total T-cells or any T-cell subsets
- subjects with normal serum CRP at Baseline and at least 1 post-ingestion CRP value >2.9 mg/L ([2]; cohorts combined): 8.3%
- serum cytokines (TNF-α, IL-2, IL-6, IFN-γ, IL-10) over time ([2]; most data points BLQ): did not indicate any consistent or clinically meaningful changes over time
- SAEs, severe AEs, deaths [3]: No SAEs, severe AEs, or subject deaths were reported
- shifts in the gut microbiome (normal mice): did not cause major shifts in the gut microbiome but showed some differences at the family level
- gut microbiome community composition over time (gut microbiome; regardless of ingestion amount): no significant changes in community composition
- alpha diversity of the gut microbiome (gut microbiome; regardless of ingestion amount): no major shifts in the microbiome alpha diversity
- alpha diversity of the gut microbiome (gut microbiome; regardless of ingestion amount, listed as D-xylose): no apparent significant impact on the intra-sample alpha diversity of the gut microbiome
- Chao diversity index over time (gut microbiome; xylose TID at 1, 2, 8, 12.5 or 15 grams): overall decrease in the Chao diversity index over time

Compound: Bacteroides
- responsiveness to checkpoint inhibitor therapy in cancer (tumors): increases the responsiveness

Compound: Bifidobacterium
- responsiveness to checkpoint inhibitor therapy in cancer (tumors): increases the responsiveness

From US9603878B2, “Probiotic and prebiotic compositions, and methods of use thereof for treatment and prevention of graft versus host disease” (Evelo Biosciences, Inc., priority 2014, dated 2017)
